Measured values published in patent publication US20040014772A1, “Compositions and methods for treating glomerular disorders” (priority 2000, published 2004).

What was measured:
[1] = test system: glomerular epithelial cells GEC; assay: PAN-induced cytotoxicity to GEC (trypan blue exclusion, LDH release); format: cell-based, rat; details: PAN 1.5 mM 48 h; preincubation CM 2 mM, PB 25 μM, RN 1 mM, PIP 0.2 mM, pyruvate 10 mM
Procedure: Rat GEC (kindly provided by both Dr. Saulo Klahr, Washington University School of Medicine, St. Louis, Mo., and Dr. […], University of Texas Health Science Center, San Antonio, Tex.) were maintained in RPMI-1640 medium supplemented with 10% FBS, 15 mM HEPES, insulin, penicillin, streptomycin and L-glutamine in a humidified atmosphere of 95% air-5% CO2 at 37° C. and fed at intervals of 3 days ([…] et al, 1995, Biochem. Biophys. 318(2):286-294). The cells were maintained in 75 Cm^2 tissue culture flasks and the monolayers were subcultured using 0.05% trypsin-0.53 mM EDTA in Hank's balanced salt solution (HBSS). For the experimental study, the cells were grown in 12-well tissue culture plate until confluence. On the day of experiment, the medium was discarded and the confluent GEC monolayer was washed twice with HBSS. The cells were then incubated with various concentrations of PAN (0, 0.1, 0.5, 1.0, 1.5, and 2.0 mM in HBSS) for different periods of time (0, 6 hours, 1 day, 2 days, 3 days and 4 days) at 37° C. At the end of the incubation, the incubation medium was discarded and the GEC monolayer was harvested by trypsinization with 0.05% trypsin-0.53 mM EDTA for 5 min at 37° C. Isolated cells were suspended in HBSS to give about 10^6 cells/ml. PAN-induced cytotoxicity to GEC was measured by the trypan blue exclusion assay (Baliga et al, 1996, Kidney Intl. 50:1118-1124) and lactate dehydrogenase (LDH) release assay (Baliga et al., 1998, Kidney Intl. 53:394-401.). The latter is the percentage of LDH released into the medium, to total LDH recovered from both medium and cellular fraction. […] After the incubation, the cell monolayers were washed twice with HBSS and then incubated with cytotoxic dose of PAN in HBSS for a period of time necessary to induce consistent cytotoxicity ([…], 48 h, based on the concentration and time course studies) at 37° C. PAN induced cytotoxicity on GEC was measured by trypan blue exclusion assay.

CYP2B1 = CYP2B1 content in GEC exposed to PAN (western blot); format: cell-based, rat; details: PAN 1.5 mM for 2 hr at 37° C.; CM 2 mM, PIP 0.2 mM, pyruvate 10 mM
Excerpt: The microsome fraction obtained was subjected to SDS-page electrophoresis in 1 mm slab gels. The separated forms were transferred from gel to a nitrocellulose sheet using a Mini Trans-blot electroblotting unit. The primary antibodies were monoclonal anti-HO-1 (OSA-111, StressGen, Victoria, BC, Canada) and monoclonal anti-CYP2B1 (PM25, Oxford Biomedical Research, Oxford, Mich., USA). Subsequent to primary and secondary antibody (peroxidase-labeled) treatment, the blots were visualized by enhanced chemiluminescence method.

CYP = details: cited from earlier work
[2] = Weight loss/gain of rats before and after treatments (PAN-induced nephrotic syndrome); format: in vivo, rat; details: rats, day 7; PAN 7.5 mg/100 g BW iv; CM 120 mg/kg ip twice a day; PB 400 mg/kg ip every other day; means ± SE
Procedure: Two different general CYP inhibitors were used, cimetidine (CM) and piperonyl butoxide (PB). Cimetidine has imidazole and cyano groups that inhibit CYP by interacting with the heme moiety. […] To determine the effect of the CYP inhibitors in PAN- induced nephrotic syndrome, CM (120 mg/kg BW) was administered intraperitoneal 1 h prior to PAN injection and then twice a day. Piperonyl butoxide (PB) which yields a metabolite that binds to the heme moiety of CYP, was given intraperitoneal (400 mg/kg BW) 4h before PAN injection and then every other day.
Also, the CYP2B1 inhibitor piperine (PIP), a methylenedioxyphenyl compound found in black and red pepper was used. PIP is believed to inhibit CYP2B1 by forming an inhibitory complex therewith. PIP was administered at a dose of 85 mg/kg of body weight (BW) by an intraperitoneal injection 16 hours prior to PAN injection and then once a day.

CYP2B1 content in GEC (CYP2B1)	SMILES	PAN-induced cytotoxicity to GEC [1]	inhibition of CYP (CYP)	Body weight After Treatment (day7) [2] [g]
not	CNC(=C[N+](=O)[O-])NCCSCc1ccc(CN(C)C)o1 [RN, ranitidine]	did not show any protection	either weakly or not at all	
preserved	O=C(/C=C/C=C/c1ccc2c(c1)OCO2)N1CCCCC1 [PIP, piperine]	markedly reduced		
	CCCCOCCOCCOCc1cc2c(cc1CCC)OCO2 [PB, piperonyl butoxide]			253 ± 4
preserve	CC(=O)C(=O)O [pyruvate]	prevent		
